According to ChEMBL document CHEMBL1201862, “PubChem BioAssay data set” (2004):
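Step 1: Grow cells in 96-well plates. Step 2: Expose to compound for 48 hours at 5 concentrations. Step 3: Interpolate endpoints linearly; if unreached, use highest concentration. GI50 = concentration required for 50% inhibition of growth.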 Calls of active or inactive are those of the source. No stated cut-off is given here; in the data, active = GI50 up to about 1.1 µM and inactive = higher.

Assays:
Test in all cases: NCI anticancer screen, dose series, 48 h
PC-3 = test system: PC-3
NCI-H460 = test system: NCI-H460
SF-295 = test system: SF-295
SF-268 = test system: SF-268
SW-620 = test system: SW-620
TK-10 = test system: TK-10
HCT-116 = test system: HCT-116
MDA-MB-435 = test system: MDA-MB-435
HOP-62 = test system: HOP-62
CCRF-CEM = test system: CCRF-CEM
MDA-MB-231 = test system: MDA-MB-231
UO-31 = test system: UO-31
NCI-H23 = test system: NCI-H23
UACC-62 = test system: UACC-62
HCT-15 = test system: HCT-15
IGROV-1 = test system: IGROV-1
K562 = test system: K562
SN12C = test system: SN12C
HCC 2998 = test system: HCC 2998
EKVX = test system: EKVX

SMILES | GI50 (PC-3) | GI50 (NCI-H460) | GI50 (SF-295) | GI50 (SF-268) | GI50 (SW-620) | GI50 (TK-10) | GI50 (HCT-116) | GI50 (MDA-MB-435) | GI50 (HOP-62) | GI50 (CCRF-CEM) | GI50 (MDA-MB-231) | GI50 (UO-31) | GI50 (NCI-H23) | GI50 (UACC-62) | GI50 (HCT-15) [µM] | GI50 (IGROV-1) | GI50 (K562) | GI50 (SN12C) | GI50 (HCC 2998) | GI50 (EKVX)
CC(C)=CCC[C@]1(C)C=Cc2c(O)c3c(c(CC=C(C)C)c2O1)O[C@]12C(=C[C@@H]4CC1C(C)(C)O[C@@]2(C/C=C(/C)C(=O)O)C4=O)C3=O | 0.802 µM (active) | 1.24 µM (inactive) | 2.3 µM (inactive) | 1.45 µM (inactive) | 0.452 µM (active) | 0.861 µM (active) | 0.256 µM (active) | 1.03 µM (active) | 1.69 µM (inactive) | 0.273 µM (active) | 1.07 µM (active) | 1.33 µM (inactive) | 0.938 µM (active) | 1.73 µM (inactive) | 0.813 | 1.43 µM (inactive) | 0.676 µM (active) | 0.719 µM (active) | 1.34 µM (inactive) | 1.67 µM (inactive)
Nn1c(Cc2ccccc2)n[nH]c1=O | > 100 µM (inactive) | > 10 µM (inactive) | > 100 µM (inactive) | > 100 µM (inactive) | > 100 µM (inactive) | > 100 µM (inactive) | > 100 µM (inactive) | > 100 µM (inactive) | > 100 µM (inactive) | > 100 µM (inactive) | > 100 µM (inactive) | > 100 µM (inactive) | > 100 µM (inactive) | > 100 µM (inactive) | > 100 | > 100 µM (inactive) | > 100 µM (inactive) | > 100 µM (inactive) | > 100 µM (inactive) | > 100 µM (inactive)
COc1cc2c3c(cc(Cl)nc3c1OC)C(O)(CC(C)=O)C(=O)N2 (stereo not given) | 25.1 µM (inactive) | 36 µM (inactive) | > 100 µM (inactive) | 6.07 µM (inactive) | 27.4 µM (inactive) | 20.2 µM (inactive) | 17.3 µM (inactive) | 16.4 µM (inactive) | > 44.6 µM (inactive) | 9.18 µM (inactive) | 17 µM (inactive) | 23.2 µM (inactive) | 30.7 µM (inactive) | 16.6 µM (inactive) | > 43.4 | 19.1 µM (inactive) | 18.5 µM (inactive) | 21.7 µM (inactive) | > 44 µM (inactive) | 16.2 µM (inactive)
